System: PANC1 cells
Assay: Colony formation / growth, PANC1
Format: cell-based, human
Details: data not shown

For `Nc1ncnc2nc(-c3ccc(N4CCOCC4)nc3)cc(-c3cccc(Br)c3)c12` [ABT-702], the “growth impairment of PANC1 cells” value was “did not observe any growth impairment”.
